In patent US8435978B2, “Substituted sulfonamide compounds” (Gruenenthal GmbH, priority 2006, dated 2013):
Structures can show the parent of a compound that is named as a salt.

Legend:
human B1R receptor = target: T1, human B1R receptor (Homo sapiens, UniProt P46663); assay: Functional study on the bradykinin receptor 1 (B1R), FLIPR Ca2+ assay, hB1R cells; type: cell-based; conditions: CHO-K1, test substance 10 μM, agonist Lys-Des-Arg9-bradykinin 0.5 nM, % inhibition compared with the maximum achievable inhibition, read-out: B1R Antagonism, human [10 μM] % Inhibition
T1 construct: host or cells: CHO K1 cells (Chinese hamster ovary), stably transfected
T1 sequence (P46663 1-353): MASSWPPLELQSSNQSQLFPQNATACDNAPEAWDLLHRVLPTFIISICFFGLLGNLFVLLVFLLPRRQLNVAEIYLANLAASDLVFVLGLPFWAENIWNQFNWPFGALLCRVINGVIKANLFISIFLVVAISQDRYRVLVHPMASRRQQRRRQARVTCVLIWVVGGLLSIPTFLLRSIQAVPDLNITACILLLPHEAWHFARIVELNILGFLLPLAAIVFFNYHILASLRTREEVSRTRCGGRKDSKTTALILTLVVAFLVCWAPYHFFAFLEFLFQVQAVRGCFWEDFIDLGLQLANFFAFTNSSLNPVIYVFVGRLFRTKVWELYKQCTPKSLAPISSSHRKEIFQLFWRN
How it was run: (§1)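 FLIPR Ca2+ assay in recombinant CHO K1 cells (human or rat B1R), Fluo-4 dye; 10 μM compound, 10 min, then EC-level agonist per species (0.5 nM Lys-Des-Arg9-BK human / 100 nM Des-Arg9-BK rat). Output: % inhibition vs maximum.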

B1R receptor of the rat = target: T2, B1R receptor of the rat (Rattus norvegicus, UniProt P97583); assay: Functional study on the bradykinin receptor 1 (B1R), FLIPR Ca2+ assay, rB1R cells; type: cell-based; conditions: CHO-K1, test substance 10 μM, agonist Des-Arg9-bradykinin 100 nM, % inhibition compared with the maximum achievable inhibition, read-out: B1R Antagonism, rat [10 μM] % Inhibition
T2 construct: host or cells: CHO K1 cells (Chinese hamster ovary), stably transfected
T2 sequence (P97583 1-337): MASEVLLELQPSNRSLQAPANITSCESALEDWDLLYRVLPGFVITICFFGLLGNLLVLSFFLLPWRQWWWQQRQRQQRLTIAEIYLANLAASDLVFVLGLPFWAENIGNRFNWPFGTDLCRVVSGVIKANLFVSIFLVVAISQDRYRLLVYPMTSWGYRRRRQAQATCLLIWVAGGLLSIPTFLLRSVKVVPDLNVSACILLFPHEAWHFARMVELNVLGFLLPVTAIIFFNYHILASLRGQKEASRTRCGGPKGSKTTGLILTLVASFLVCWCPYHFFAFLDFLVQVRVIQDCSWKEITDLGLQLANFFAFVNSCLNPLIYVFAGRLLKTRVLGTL
How it was run: as §1

Row | SMILES | inhibition at 10 µM (human B1R receptor) [%] | inhibition at 10 µM (B1R receptor of the rat) [%]
1 | COc1ccc(S(=O)(=O)N2Cc3ccccc3C[C@H]2COCC(=O)N2CCN(C3CCN(C)CC3)CC2)cc1 [Example 142, (S)-2-((2-(4-methoxyphenylsulfonyl)-1,2,3,4-tetrahydroisoquinolin-3-yl)methoxy)-1-(4-(1-methylpiperidin-4-yl)piperazin-1-yl)ethanone] | 89.9 | 63
2 | COc1cc(C)c(S(=O)(=O)N2CCCCC2COCC(=O)NCCC2CCN(c3ccncc3)CC2)c(C)c1 (stereo not shown) [Example 143, 2-((1-(4-methoxy-2,6-dimethylphenylsulfonyl)piperidin-2-yl)methoxy)-N-(2-(1-(pyridin-4-yl)piperidin-4-yl)ethyl)acetamide] | 99.9 | 99.3
3 | COc1cc(C)c(S(=O)(=O)N2CCCCC2COCC(=O)N2CCC(N3CCn4ccnc4C3)CC2)c(C)c1 (stereo not shown) [Example 144, 1-(4-(5,6-dihydroimidazo[1,2-a]pyrazin-7(8H)-yl)piperidin-1-yl)-2-((1-(4-methoxy-2,6-dimethylphenylsulfonyl)piperidin-2-yl)methoxy)ethanone] | 101 | 98.2
4 | COc1cc(C)c(S(=O)(=O)N2CCCCC2COCC(=O)N2CCC(N3CCn4ncnc4C3)CC2)c(C)c1 (stereo not shown) [Example 145, 1-(4-(5,6-dihydro-[1,2,4]triazolo[1,5-a]pyrazin-7(8H)-yl)piperidin-1-yl)-2-((1-(4-methoxy-2,6-dimethylphenylsulfonyl)piperidin-2-yl)methoxy)ethanone] | 99.4 | 98.6
5 | COc1cc(C)c(S(=O)(=O)N2CCCCC2COCC(=O)N2CCC(C(=O)N3CCN(C)CC3)CC2)c(C)c1 (stereo not shown) [Example 146, 2-((1-(4-methoxy-2,6-dimethylphenylsulfonyl)piperidin-2-yl)methoxy)-1-(4-(4-methylpiperazin-1-carbonyl)piperidin-1-yl)ethanone] | 97.3 | 99.6
6 | COc1cc(C)c(S(=O)(=O)N2CCCCC2COCC(=O)N2CCN(c3ccncc3)CC2)c(C)c1 (stereo not shown) [Example 147, 2-((1-(4-methoxy-2,6-dimethylphenylsulfonyl)piperidin-2-yl)methoxy)-1-(4-(pyridin-4-yl)piperazin-1-yl)ethanone] | 100 | 100
7 | Cc1cc(Br)cc(C)c1S(=O)(=O)N1CCCCC1COCC(=O)N1CCN(C2CCN(C)CC2)CC1 (stereo not shown) [Example 148, 2-((1-(4-bromo-2,6-dimethylphenylsulfonyl)piperidin-2-yl)methoxy)-1-(4-(1-methylpiperidin-4-yl)piperazin-1-yl)ethanone] | 100 | 100
8 | Cc1cc(Br)cc(C)c1S(=O)(=O)N1CCCCC1COCC(=O)N1CCC(CCN2CCCC2)CC1 (stereo not shown) [Example 149, 2-((1-(4-bromo-2,6-dimethylphenylsulfonyl)piperidin-2-yl)methoxy)-1-(4-(2-(pyrrolidin-1-yl)ethyl)piperidin-1-yl)ethanone] | 99.4 | 100
9 | Cc1cc(Br)cc(C)c1S(=O)(=O)N1CCCCC1COCC(=O)N1CCN(c2ccncc2)CC1 (stereo not shown) [Example 150, 2-((1-(4-bromo-2,6-dimethylphenylsulfonyl)piperidin-2-yl)methoxy)-1-(4-(pyridin-4-yl)piperazin-1-yl)ethanone] | 98.3 | 99.1
10 | Cc1c(S(=O)(=O)N2CCCCC2COCC(=O)N2CCN(C3CCN(C)CC3)CC2)sc2ccc(Cl)cc12 (stereo not shown) [Example 151, 2-((1-(5-chloro-3-methylbenzo[b]thiophen-2-ylsulfonyl)piperidin-2-yl)methoxy)-1-(4-(1-methylpiperidin-4-yl)piperazin-1-yl)ethanone dihydrochloride] | 107 | 103
11 | Cc1cccc(Cl)c1S(=O)(=O)N1CCC[C@@H]1COCC(=O)N1CCN(C2CCN(C)CC2)CC1 [Example 152, (R)-2-((1-(2-chloro-6-methylphenylsulfonyl)pyrrolidin-2-yl)methoxy)-1-(4-(1-methylpiperidin-4-yl)piperazin-1-yl)ethanone dihydrochloride] | 100 | 90.8
12 | CN1CCC(N2CCN(C(=O)COCC3CCCCN3S(=O)(=O)c3cc(C(F)(F)F)ccc3C(F)(F)F)CC2)CC1 (stereo not shown) [Example 153, 2-((1-(2,5-bis(trifluoromethyl)phenylsulfonyl)piperidin-2-yl)methoxy)-1-(4-(1-methylpiperidin-4-yl)piperazin-1-yl)ethanone] | 81.6 | 40.6
13 | CN1CCC(N2CCN(C(=O)COCC3CCCCN3S(=O)(=O)c3ccc(Cl)c4nonc34)CC2)CC1 (stereo not shown) [Example 154, 2-((1-(7-chlorobenzo[c][1,2,5]oxadiazol-4-ylsulfonyl)piperidin-2-yl)methoxy)-1-(4-(1-methylpiperidin-4-yl)piperazin-1-yl)ethanone] | 83.2 | 84.4
14 | Cc1ccc(S(=O)(=O)N2CCCCC2COCC(=O)N2CCN(C3CCN(C)CC3)CC2)c2ccccc12 (stereo not shown) [Example 155, 2-((1-(4-methylnaphthalen-1-ylsulfonyl)piperidin-2-yl)methoxy)-1-(4-(1-methylpiperidin-4-yl)piperazin-1-yl)ethanone dihydrochloride] | 107 | 89.6
15 | CN1CCC(N2CCN(C(=O)COCC3CCCCN3S(=O)(=O)c3cc(Cl)c(Cl)cc3Cl)CC2)CC1 (stereo not shown) [Example 156, 1-(4-(1-methylpiperidin-4-yl)piperazin-1-yl)-2-((1-(2,4,5-trichlorophenylsulfonyl)piperidin-2-yl)methoxy)ethanone dihydrochloride] | 108 | 103
16 | Cc1ccc2ccccc2c1S(=O)(=O)N1CCCCC1COCC(=O)N1CCN(C2CCN(C)CC2)CC1 (stereo not shown) [Example 157, 2-((1-(2-methylnaphthalen-1-ylsulfonyl)piperidin-2-yl)methoxy)-1-(4-(1-methylpiperidin-4-yl)piperazin-1-yl)ethanone dihydrochloride] | 98.2 | 100
17 | CN1CCC(N2CCN(C(=O)COCC3CCCCN3S(=O)(=O)c3cccc4c(N(C)C)cccc34)CC2)CC1 (stereo not shown) [Example 158, 2-((1-(5-(dimethylamino)naphthalen-1-ylsulfonyl)piperidin-2-yl)methoxy)-1-(4-(1-methylpiperidin-4-yl)piperazin-1-yl)ethanone dihydrochloride] | 98.5 | 99.3
18 | Cc1ccccc1S(=O)(=O)N1CCCCC1COCC(=O)N1CCN(C2CCN(C)CC2)CC1 (stereo not shown) [Example 159, 1-(4-(1-methylpiperidin-4-yl)piperazin-1-yl)-2-((1-(o-tolylsulfonyl)piperidin-2-yl)methoxy)ethanone dihydrochloride] | 99.2 | 101
19 | CN1CCC(N2CCN(C(=O)COCC3CCCCN3S(=O)(=O)c3c(Cl)cc(Br)cc3Cl)CC2)CC1 (stereo not shown) [Example 160, 2-((1-(4-bromo-2,6-dichlorophenylsulfonyl)piperidin-2-yl)methoxy)-1-(4-(1-methylpiperidin-4-yl)piperazin-1-yl)ethanone dihydrochloride] | 99 | 99
20 | Cc1cccc(Cl)c1S(=O)(=O)N1CCC[C@H]1COCC(=O)N1CCC(CCN2CCCC2)CC1 [Example 161, (S)-2-((1-(2-chloro-6-methylphenylsulfonyl)pyrrolidin-2-yl)methoxy)-1-(4-(2-(pyrrolidin-1-yl)ethyl)piperidin-1-yl)ethanone hydrochloride] | 98.5 | 99.2
21 | Cc1cccc(Cl)c1S(=O)(=O)N1CCC[C@H]1COCC(=O)N1CCN(C2CCN(C)CC2)CC1 [Example 162, (S)-2-((1-(2-chloro-6-methylphenylsulfonyl)pyrrolidin-2-yl)methoxy)-1-(4-(1-methylpiperidin-4-yl)piperazin-1-yl)ethanone dihydrochloride] | 99.5 | 99.5
22 | Cc1cccc(Cl)c1S(=O)(=O)N1CCC[C@H]1COCC(=O)N1CCN(CC2CCN(C)CC2)CC1 [Example 163, (S)-2-((1-(2-chloro-6-methylphenylsulfonyl)pyrrolidin-2-yl)methoxy)-1-(4-((1-methylpiperidin-4-yl)methyl)piperazin-1-yl)ethanone dihydrochloride] | 95 | 101
23 | COc1cc(C)c(S(=O)(=O)N2CCCCC2CCOCC(=O)N2CCN(C3CCN(C)CC3)CC2)c(C)c1 (stereo not shown) [Example 164, 2-(2-(1-(4-methoxy-2,6-dimethylphenylsulfonyl)piperidin-2-yl)ethoxy)-1-(4-(1-methylpiperidin-4-yl)piperazin-1-yl)ethanone] | 99.6 | 101
